# Measured values as given in US20200085868A1, “Method For Treating Cancer” (China Medical University Hospital, priority 2018, published 2020).
# Entries after “also recorded” stand apart in the source; their conditions may differ.
# What was measured:
# Format in all cases: cell-based
# [1] = tested on: human ovarian cancer cell line SKOV3; assay: Tumor cell death (cytotoxicity), Annexin V-FITC and PI staining, flow cytometry; conditions: group 1: chemotherapy drug alone, carboplatin 20 μM; control less than 10%
# Experimental: (§1) First, the human breast cancer cell line MDA-MB-231, the human malignant brain tumor cell line DBTRG, the human pancreatic cancer cell line AsPC1 and the human ovarian cancer cell line SKOV3 are seeded in a 12-well plate at a density of 1×10^5 cells/well. The cells are subsequently incubated for 24 hours. Each type of the tumor cells is divided into six groups. In a control, the tumor cells are untreated. In a group 1, the tumor cells are treated with the chemotherapy drug. In a group 2, the tumor cells are treated with the parental NK-92 cell line. In a group 3, the tumor cells are treated with the parental NK-92 cell line and the chemotherapy drug. In the groups 2 and 3, the number of the parental NK-92 cell line treated is 1×10^5 cells. In a group 4, the tumor cells are treated with the chimeric antigen receptor expressing cell of Example 1. […] The treated cells are stained with Annexin V-FITC and propidium iodide (PI), and the apoptosis and the death of the tumor cells are detected by the flow cytometry. The sum of the percentage of cells stained with Annexin V-FITC and/or PI (that is the percentage of cells in the first quadrant, the second quadrant, and the fourth quadrant of the bivariate flow cytometry scatter plot) are calculated to obtain the cytotoxicity. The results of the cytotoxicity are counted after the three independent trials in each group. […]
# [2] = tested on: HLA-G expression of the human ovarian cancer cell line SKOV3; assay: HLA-G expression of tumor cells treated with chemotherapy drug, flow cytometry; conditions: SKOV3, carboplatin 20 μM, 48 hours; control 14.69%
# Experimental: (§2) The human ovarian cancer cell line SKOV3 is cultured in McCoy's 5A culture medium containing 10% FBS.
# (§3) First, the human breast cancer cell line MDA-MB-231, the human malignant brain tumor cell line DBTRG, the human pancreatic cancer cell line AsPC1 and the human ovarian cancer cell line SKOV3 are seeded in a 6-well plate at a density of 2×10^5 cells/well. The cells are subsequently incubated for 24 hours. […] In a control, the tumor cells are untreated.
# (§4) Please refer to FIGS. 2A, 2B, 2C, 2D and 2E, which are analytical results of flow cytometry showing a HLA-G expression of tumor cells treated with a chemotherapy drug. FIG. 2A is analytical result of flow cytometry of the human breast cancer cell line MDA-MB-231. FIG. 2B is analytical result of flow cytometry of the human malignant brain tumor cell line DBTRG. FIG. 2C is analytical result of flow cytometry of the human pancreatic cancer cell line AsPC1. FIG. 2D is analytical result of flow cytometry of the human ovarian cancer cell line SKOV3. FIG. 2E is a statistical chart of FIGS. 2A, 2B, 2C and 2D.
# [3] = tested on: HLA-G expression level on the plasma membrane of the human ovarian cancer cell line SKOV3; assay: HLA-G expression level of tumor cells treated with chemotherapy drug, immunofluorescence staining assay; conditions: SKOV3, carboplatin 20 μM, 48 hours, vs untreated control
# Experimental: (§5) To investigate effect of the treatment of the chemotherapy drug on the tumor cells, the tumor cells are treated with the chemotherapy drug, and then detecting the HLA-G expression level of the tumor cells.
# (§6) The tumor cells used are human breast cancer cell line MDA-MB-231, human malignant brain tumor cell line DBTRG-05MG (hereinafter referred to as DBTRG), human pancreatic cancer cell line AsPC1, and human ovarian cancer cell line SKOV3. The tumor cell lines used are all purchased from the American Type Culture Collection (ATCC). The human breast cancer cell line MDA-MB-231 is a triple-negative breast cancer cell line, that is, the hormone receptor (ER, PR) and HER-2 receptor thereof are negative, and the human breast cancer cell line MDA-MB-231 is cultured in RPMI culture medium containing 10% fetal bovine serum (FBS). The human malignant brain tumor cell line DBTRG is cultured in DMEM culture medium containing 10% FBS. […]
# (§7) First, the human breast cancer cell line MDA-MB-231, the human malignant brain tumor cell line DBTRG, the human pancreatic cancer cell line AsPC1 and the human ovarian cancer cell line SKOV3 are seeded in a 6-well plate at a density of 2×10^5 cells/well. […] Then, the HLA-G expression level of the tumor cells are detected by immunofluorescence staining assay and flow cytometry.
# [4] = tested on: human breast cancer cell line MDA-MB-231; assay: Tumor cell death (cytotoxicity), Annexin V-FITC and PI staining, flow cytometry; conditions: group 1: chemotherapy drug alone, doxorubicin 200 nM; control about 10%
# Experimental: (§8) The cells are subsequently incubated for 24 hours. […] In a control, the tumor cells are untreated.
# as §8, §8
# [5] = tested on: HLA-G expression of the human breast cancer cell line MDA-MB-231; assay: HLA-G expression of tumor cells treated with chemotherapy drug, flow cytometry; conditions: MDA-MB-231, doxorubicin 200 nM, 48 hours; control 12.27%
# Experimental: as §5, §6, §7
# [6] = tested on: HLA-G expression level on the plasma membrane of the human breast cancer cell line MDA-MB-231; assay: HLA-G expression level of tumor cells treated with chemotherapy drug, immunofluorescence staining assay; conditions: MDA-MB-231, doxorubicin 200 nM, 48 hours, vs untreated control
# Experimental: as §5, §6, §7
# [7] = tested on: human pancreatic cancer cell line AsPC1; assay: Tumor cell death (cytotoxicity), Annexin V-FITC and PI staining, flow cytometry; conditions: group 1: chemotherapy drug alone, gemcitabine 20 μM
# Experimental: as §1
# [8] = tested on: HLA-G expression of the human pancreatic cancer cell line AsPC1; assay: HLA-G expression of tumor cells treated with chemotherapy drug, flow cytometry; conditions: AsPC1, gemcitabine 20 μM, 48 hours; control 13.18%
# Experimental: as §2, §3, §4
# [9] = tested on: HLA-G expression of the human malignant brain tumor cell line DBTRG; assay: as above; conditions: temozolomide 80 μg/mL, 48 hours, control 14.01%
# Experimental: as §5, §6, §7
compound,measurement,setting,value
N.N.O=C([O-])C1(C(=O)[O-])CCC1.[Pt+2] [carboplatin],death rate of SKOV3,[1],"increased, but there is no statistically significant difference compared to the control; also recorded: comparable to that of the control"
same,mean fluorescence intensity (MFI) of HLA-G,[2],38.58%
same,HLA-G expression level on the plasma membrane,[3],increase
COc1cccc2c1C(=O)c1c(O)c3c(c(O)c1C2=O)C[C@@](O)(C(=O)CO)C[C@@H]3O[C@H]1C[C@H](N)[C@H](O)[C@H](C)O1 [doxorubicin],death rate of MDA-MB-231,[4],"increased, but there is no statistically significant difference compared to the control"
same,mean fluorescence intensity (MFI) of HLA-G,[5],64.45%
same,HLA-G expression level on the plasma membrane,[6],increase
Nc1ccn([C@@H]2O[C@H](CO)[C@@H](O)C2(F)F)c(=O)n1 [gemcitabine],death rate of AsPC1,[7],"increased, but there is no statistically significant difference compared to the control; also recorded: comparable to that of the control"
same,mean fluorescence intensity (MFI) of HLA-G,[8],41.44%
Cn1nnc2c(C(N)=O)ncn2c1=O [temozolomide],mean fluorescence intensity (MFI) of HLA-G,[9],22.33%
